Legend:
[1] = tested on: vitelline membrane of chick embryos; experiment: Embryonic vascularization test (EVT) ex ovo; type: in vivo
Excerpt: FIG. 2: A and B show an anti-angiogenic response to bpV(phen), orthovanadate (Van) and protamine (Prot) using a vascularization test on the vitelline membrane of chick embryos. Each point represents a minimum of 15 embryos (15 to 28).
The normal development of a chick embryo involves the formation of an external vascular system which is located in the vitelline membrane and which carries nutrients from the vitellus (yolk of the egg) to the developing embryo. When placed onto the vitelline membrane, anti-angiogenic substances can inhibit blood vessel development in the vitelline membrane. To facilitate access to the vitelline membrane, chick embryos were transferred to a sterile culture box (Petri dish) and placed in a humidity- and temperature-controlled incubator. Embryos could then develop in this ex ovo condition for several days.
An aliquot of the tested compound was mixed with a methylcellulose solution and allowed to air-dry into thin discs. Methylcellulose forms an inert matrix from which the tested compound can diffuse slowly. Methylcellulose discs containing the tested compound were placed on the external border of the vascular perimeter of the vitelline membrane where the angiogenic process was still active.
The effects of the discs containing the tested compound on proximal vascular development were, in all cases, compared with those of discs containing control buffer. The discs were placed on the embryos' vitelline membrane on Day 0 or Day 1 of the ex ovo growth process; at this point, only beginnings of the main blood vessels are invading the vitellus. The embryos were then put in culture conditions until vascularization was assessed (approximately 24 h). Control buffer- and compound-containing discs were in all cases added simultaneously on the vitelline membrane of the same embryo. Both discs were arranged in a symmetrical fashion with respect to the cephalo-caudal axis of the embryo in order to minimize inter-individual variations when comparing the tested compounds with controls.
[…] After one day in culture, the level of vascularization in the area covered by the discs was graded by a pair of scientists in the usual blind fashion. To facilitate the location of the discs, black O-rings were placed around them just after their placement on the vitelline membrane. The evaluation scale for the EVTs was based on two different scoring systems.
Blood vessel formation was assessed in a blind fashion. The areas of the vitelline membranes that lay beneath the methylcellulose discs were scored for the degree of vascularization, using two scoring systems (“N/+” or “1-2-3”). The following selection criteria were used:
A score of “N” for “Normal” was attributed when all the following conditions were met:
Blood vessels in the evaluated area grew along their path with no abnormal deviation. Collateral branching density was normal and the growth path of the lateral branches was also normal.
A score of “+” was attributed when at least one of the following conditions was met:
1-2-3 Grading Scale System:
A score of 3 was attributed when the following conditions were met:
A score of 2 was attributed when at least one of the following conditions was met:
A score of 1 was attributed when at least one of the following conditions was met:
A score of 3 meant that blood vessel development was normal whereas a score of 1 indicated the greatest degree of angiostatic activity.

[2] = tested on: ETs (ET-1, ET-2, ET-3); experiment: Plasma endothelin levels after insulin (RIA); type: in vivo; settings: rats, bpV(phen) 0.5 mg/100 g b.w. i.p. 16 hours before insulin
Procedure: The data presented in Table III show the effect of bpV(phen) on the plasmatic levels of ETs. […] Two minutes following insulin administration (1.5 μg/100 g b.w, or vehicle), the plasma levels of ETs were determined. Insulin administration induced a strong increase of seric ET concentration (54). […] In addition, bpV(phen) decreased the insulin-stimulated levels of plasmatic ETs below control levels. […] ETs (ET-1, ET-2, ET-3) were measured by RIA (Amersham kit RPA 555) after lyophilization and extraction on C2 columns (500 mg). Results are mean ±SEM, p<0.0209, control (n=4) vs Insulin, pV (n=3).

[3] = tested on: Human prostate adenocarcinoma (PC-3); experiment: Human prostate adenocarcinoma (PC-3) xenograft; type: in vivo, Male Balb/c nude (nu/nu) mice; settings: 5 mg/Kg daily i.p. for 39 days
Procedure: B) Human prostate adenocarcinoma (PC-3) in the athymic mice: Male Balb/c nude (nu/nu) were purchased at 4-6 weeks of age from Charles Rivers Inc. Mice were housed under pathogen free conditions and maintained on a 12-h light/12-h dark cycle with food and water supplied ad libitum. The hormono-independent PC3 human tumor cells were from the American Tissue Cuture Collection. Cells were grown in DMEM in the presence of 5% foetal bovine serum. Cells were collected at confluence, included in a matrix (1.0×10^6 cells/ml; 30% Matrigel). An equal volume of the tumor cell suspension was injected s.c. in the right flank of each mouse. After 5 days, a palpable tumor of approximately 5×5 mm was detected in the inoculated animals. Mice with palpable tumors were divided into five groups (18 mice/group) for the treatment study. All mice in each treatment group had tumor of similar size at the start of treatment. For administration to mice, bpV(phen) was dissolved and diluted in phosphate buffered saline (PBS) at pH 7.4. A 5 mg/Kg dose of bpV(phen) was administed daily by i.p. for 39 days. Taxol was used as a positive control at the dose of 20 mg/Kg and injected i.p. at every three days. A control group of 10 animals was injected with PBS. The injection volume was kept constant at […]. The mice were weighed three times during the experimental period to assess toxicity of the treatment, and the tumors were measured twice weekly using calipers. Tumor volume was calculated from the two-dimensional caliper measurements using the following formula: tumor volume=length×(width)^2×0.53.
The treatment period was completed after 39 days, when the PBS treated group of mice had large tumors, requiring that the animals be sacrificed according to the Animal Care Procedures. […]
Statistical analysis: Tumor growth curves are presented in terms of treatment group means and SEs. Statistical significance of treatment effect was assessed by repeated measures ANOVA after applying a power transformation to equalize residual variances and linearize the tumor growth curves.

In the case of `O.O.O.OO.OO.[K+].[OH-].[V].c1cnc2c(c1)ccc1cccnc12` [bpV(phen), potassium bisperoxo(1,10-phenanthroline)oxovanadate], the “Anti-angio.activity 1 to 3 (1: no angiogenesis; 3: normal angiogenesis)” value ([1]; 0.001 μg, Assay 1) is reported as 2.7, the “Anti-angio.activity % (proportion of embryos showing an anti-angiogenic response)” value (“Anti-angio.activity %” for short) ([1]; 0.001 μg, Assay 1) is reported as 12% and the “Anti-angio.activity 1 to 3 (1: no angiogenesis; 3: normal angiogenesis)” value ([1]; 0.001 μg, Assay 2) is reported as 2.4. The “Anti-angio.activity %” value ([1]; 0.001 μg, Assay 2) was 20%, the “Anti-angio.activity 1 to 3 (1: no angiogenesis; 3: normal angiogenesis)” value ([1]; 0.001 μg, Assay 5) was 2.6 and the “Anti-angio.activity %” value ([1]; 0.001 μg, Assay 5) was 16%. The “Anti-angio.activity 1 to 3 (1: no angiogenesis; 3: normal angiogenesis)” value ([1]; 0.01 μg, Assay 1) was 2.3, the “Anti-angio.activity %” value ([1]; 0.01 μg, Assay 1) was 31% and the “Anti-angio.activity 1 to 3 (1: no angiogenesis; 3: normal angiogenesis)” value ([1]; 0.01 μg, Assay 2) was 2.5. For the same molecule, the “Anti-angio.activity %” value ([1]; 0.01 μg, Assay 2) was 19%, the “Anti-angio.activity 1 to 3 (1: no angiogenesis; 3: normal angiogenesis)” value ([1]; 0.01 μg, Assay 5) was 2.4 and the “Anti-angio.activity %” value ([1]; 0.01 μg, Assay 5) was 25%. For the same molecule, the “Anti-angio.activity 1 to 3 (1: no angiogenesis; 3: normal angiogenesis)” value ([1]; 0.1 μg, Assay 1) was 1.8, the “Anti-angio.activity %” value ([1]; 0.1 μg, Assay 1) was 61% and the “Anti-angio.activity 1 to 3 (1: no angiogenesis; 3: normal angiogenesis)” value ([1]; 0.1 μg, Assay 2) was 2.2. The “Anti-angio.activity %” value ([1]; 0.1 μg, Assay 2) was 45%, the “Anti-angio.activity 1 to 3 (1: no angiogenesis; 3: normal angiogenesis)” value ([1]; 0.1 μg, Assay 5) was 2.0 and the “Anti-angio.activity %” value ([1]; 0.1 μg, Assay 5) was 53%. For the same molecule, the “Anti-angio.activity 1 to 3 (1: no angiogenesis; 3: normal angiogenesis)” value ([1]; 1 μg, Assay 1) was 1.6, the “Anti-angio.activity %” value ([1]; 1 μg, Assay 1) was 86% and the “Anti-angio.activity 1 to 3 (1: no angiogenesis; 3: normal angiogenesis)” value ([1]; 1 μg, Assay 2) was 1.1. For the same molecule, the “Anti-angio.activity %” value ([1]; 1 μg, Assay 2) was 100%, the “Anti-angio.activity 1 to 3 (1: no angiogenesis; 3: normal angiogenesis)” value ([1]; 1 μg, Assay 4) was 1.0 and the “Anti-angio.activity %” value ([1]; 1 μg, Assay 4) was 96%. The “Anti-angio.activity 1 to 3 (1: no angiogenesis; 3: normal angiogenesis)” value ([1]; 1 μg, Assay 5) was 1.2, the “Anti-angio.activity %” value ([1]; 1 μg, Assay 5) was 94% and the “approximate IC50, neovascularization (regardless of the scoring system)” value ([1]; per methylcellulose disc) was ~0.1 µg. For the same molecule, the “insulin-induced increase of seric ET concentration” value [2] was “completely abolished”, the Plasma endothelins ([2]; two minutes after insulin 1.5 μg/100 g b.w., mean ±SEM, n=3) was 77.68 ± 3.08 pg/mL and the deaths [3] was “No death”. The “suppression of the final tumor compared with PBS-treated control animals” value [3] was 59% and the “body weight gained relative to weight at the initiation of the treatment” value ([3]; average) was 1.7 grams.
